Data published in US6472391B2, “Nitrogen-containing heterocyclic compounds” (Millennium Pharmaceuticals, Inc., priority 1996, dated 2002).

SMILES | melting point
CCNc1cc2ncnc(N3CCN(C(=O)Nc4ccc(Oc5ccccc5)cc4)CC3)c2cc1[N+](=O)[O-] [Compound 109, 4-(7-Ethylamino-6-nitro-4-quinazolinyl)-N-(4-phenoxyphenyl)-1-piperazinecarboxamide] | 242 to 244 °C
COc1cc2ncnc(N3CCN(C(=S)NCc4cccc(F)c4)CC3)c2cc1OC [Compound 171, 4-(6,7-Dimethoxy-4-quinazolinyl)-N-(3-fluorobenzyl)-1-piperazinethiocarboxamide] | 100 to 102 °C
O=C(Nc1ccc([N+](=O)[O-])cc1)N1CCN(c2nc(-c3ccccc3)nc3ccccc23)CC1 [Compound 110, 4-(2-Phenyl-4-quinazolinyl)-N-(4-nitrophenyl)-1-piperazinecarboxamide] | 236 to 238 °C
O=C(Nc1ccc(Oc2ccccc2)cc1)N1CCN(c2ccnc3cc(Cl)ccc23)CC1 [Compound 115, 4-(7-Chloro-4-quinolyl)-N-(4-phenoxyphenyl)-1-piperazinecarboxamide] | 159 to 161 °C
COc1cc2ncnc(N3CCN(C(=O)N(C)c4ccccc4)CC3)c2cc1OC [Compound 137, 4-(6,7-Dimethoxy-4-quinazolinyl)-N-methyl-N-phenyl-1-piperazinecarboxamide] | 187 to 188 °C
COc1cc2ncnc(N3CCN(C(=O)Nc4cccc(SC)c4)CC3)c2cc1OC [Compound 217, 4-(6,7-Dimethoxy-4-quinazolinyl)-N-(3-methylthiophenyl)-1-piperazinecarboxamide] | 180 to 181 °C
COc1cc2ncnc(N3CCN(C(=S)Nc4ccc(SC)cc4)CC3)c2cc1OC [Compound 218, 4-(6,7-Dimethoxy-4-quinazolinyl)-N-(4-methylthiophenyl)-1-piperazinethiocarboxamide] | 214 to 216 °C
COc1cc2ncnc(N3CCN(C(=O)Nc4ccc(N(C)C)cc4)CC3)c2cc1OC [Compound 222, 4-(6,7-Dimethoxy-4-quinazolinyl)-N-(4-dimethylaminophenyl)-1-piperazinecarboxamide] | 252 to 254 °C
COc1cc2ncnc(N3CCN(C(=O)Nc4cccc(I)c4)CC3)c2cc1OC [Compound 186, 4-(6,7-Dimethoxy-4-quinazolinyl)-N-(3-iodophenyl)-1-piperazinecarboxamide] | 205 to 208 °C
COc1cc2ncnc(N3CCN(C(=S)Nc4cccc(C)c4)CC3)c2cc1OC [Compound 145, 4-(6,7-Dimethoxy-4-quinazolinyl)-N-(3-tolyl)-1-piperazinethiocarboxamide] | 199 to 201 °C
COc1cc2ncnc(N3CCN(C(=S)Nc4ccc(Oc5ccc([N+](=O)[O-])cc5)cc4)CC3)c2cc1OC [Compound 62, 4-(6,7-Dimethoxy-4-quinazolinyl)-N-[4-(4-nitrophenoxy)phenyl]-1-piperazinethiocarboxamide] | 204 to 207 °C
COc1cc2ncnc(N3CCN(C(=S)Nc4ccc(Sc5ccc([N+](=O)[O-])cc5)cc4)CC3)c2cc1OC [Compound 70, 4-(6,7-Dimethoxy-4-quinazolinyl)-N-[4-(4-nitrophenylthio)phenyl]-1-piperazinethiocarboxamide] | 144 to 146 °C
COc1cc2ncnc(N3CCN(C(=S)NCc4ccc(N(C)C)cc4)CC3)c2cc1OC [Compound 224, 4-(6,7-Dimethoxy-4-quinazolinyl)-N-(4-dimethylaminobenzyl)-1-piperazinethiocarboxamide] | 177 to 178 °C
CCc1cccc(NC(=O)N2CCN(c3ncnc4cc(OC)c(OC)cc34)CC2)c1 [Compound 148, 4-(6,7-Dimethoxy-4-quinazolinyl)-N-(3-ethylphenyl)-1-piperazinecarboxamide] | 207 to 208 °C
COc1cc2ncnc(N3CCN(C(=O)NCc4ccc(C(F)(F)F)cc4)CC3)c2cc1OC [Compound 160, 4-(6,7-Dimethoxy-4-quinazolinyl)-N-(4-trifluoromethylbenzyl)-1-piperazinecarboxamide] | 195 to 197 °C
COc1cc2ncnc(N3CCN(C(=O)Nc4ccc(Cl)c(C(F)(F)F)c4)CC3)c2cc1OC [Compound 49, N-[4-Chloro-3-(trifluoromethyl)phenyl]-4-(6,7-dimethoxy-4-quinazolinyl)-1-piperazinecarboxamide] | 237 to 238 °C
COc1cc2ncnc(N3CCN(C(=S)Nc4ccc(F)cc4)CC3)c2cc1OC [Compound 37, 4-(6,7-Dimethoxy-4-quinazolinyl)-N-(4-fluorophenyl)-1-piperazinethiocarboxamide] | 212 to 217 °C
COc1cc2ncnc(N3CCN(C(=O)Nc4ccccc4)CC3)c2cc1OC [Compound 1, 4-(6,7-Dimethoxy-4-quinazolinyl)-N-phenyl-1-piperazinecarboxamide] | 121 to 123 °C
CCOc1cc2ncnc(N3CCN(C(=O)Nc4ccc(Oc5ccccc5)cc4)CC3)c2cc1OCC [Compound 106, 4-(6,7-Diethoxy-4-quinazolinyl)-N-(4-phenoxyphenyl)-1-piperazinecarboxamide] | 187 to 190 °C
COc1cc2ncnc(N3CCN(C(=S)Nc4ccc(Br)c(C)c4)CC3)c2cc1OC [Compound 191, N-(4-Bromo-3-methylphenyl)-4-(6,7-dimethoxy-4-quinazolinyl)-1-piperazinethiocarboxamide] | 160 to 161 °C
COc1cc(NC(=S)N2CCN(c3ncnc4cc(OC)c(OC)cc34)CC2)cc(OC)c1 [Compound 67, N-(3,5-Dimethoxyphenyl)-4-(6,7-dimethoxy-4-quinazolinyl)-1-piperazinethiocarboxamide] | 240 to 241 °C
COc1cc2ncnc(N3CCN(C(=O)Nc4ccc(C(F)(F)F)cc4)CC3)c2cc1OC [Compound 23, 4-(6,7-Dimethoxy-4-quinazolinyl)-N-[4-(trifluoromethyl)phenyl]-1-piperazinecarboxamide] | 227 to 230 °C

Now from value to compound:

melting point | SMILES
68 to 70 °C | S=C(NCc1ccccc1)N1CCN(c2ncnc3ccccc23)CC1 [Compound 285, N-Benzyl-4-(4-quinazolinyl)-1-piperazinethiocarboxamide]
116 to 120 °C | O=C(Nc1ccc(Oc2ccccc2)cc1)N1CCN(c2ncnc3ccc(Cl)cc23)CC1 [Compound 301, 4-(6-Chloro-4-quinazolinyl)-N-(4-phenoxyphenyl)-1-piperazinecarboxamide]
170 to 171 °C | O=C(Nc1ccc(Oc2ccccc2)cc1)N1CCN(c2ncnc3ccc([N+](=O)[O-])cc23)CC1 [Compound 311, 4-(6-Nitro-4-quinazolinyl)-N-(4-phenoxyphenyl)-1-piperazinecarboxamide]
146 to 147 °C | COc1cc2nc(C)nc(N3CCN(C(=O)Nc4ccc(Oc5ccccc5)cc4)CC3)c2cc1OC [Compound 391, 4-(6,7-Dimethoxy-2-methyl-4-quinazolinyl)-N-(4-phenoxyphenyl)-1-piperazinecarboxamide]
228 to 229 °C | COc1cc2ncnc(N3CCN(C(=O)Nc4ccc(Oc5ccccc5)cc4)CC3)c2cc1OS(C)(=O)=O [Compound 350, 4-(6-Mesyloxy-7-methoxy-4-quinazolinyl)-N-(4-phenoxyphenyl)-1-piperazinecarboxamide]
139 to 140 °C | COc1ccc2ncnc(N3CCN(C(=S)NCc4cccnc4)CC3)c2c1 [Compound 310, 4-(6-Methoxy-4-quinazolinyl)-N-(3-picolyl)-1-piperazinethiocarboxamide]
250 to 251 °C | CCn1c(=O)n(C)c2cc3c(N4CCN(C(=O)Nc5ccc(Oc6ccccc6)cc5)CC4)ncnc3cc21 [Compound 387, 4-(1,3-Dihydro-3-ethyl-1-methyl-2-oxo-2H-imidazo[4,5-g]quinazolin-8-yl)-N-(4-phenoxyphenyl)-1-piperazinecarboxamide]
239 to 240 °C | COc1cccc2c(N3CCN(C(=O)Nc4ccc(C(C)=O)cc4)CC3)ncnc12 [Compound 328, N-(4-Acetylphenyl)-4-(8-methoxy-4-quinazolinyl)-1-piperazinecarboxamide]
174 to 175 °C | O=C(Nc1ccc(Oc2ccccc2)cc1)N1CCN(c2ccnc3c(Cl)cccc23)CC1 [Compound 412, 4-(8-Chloro-4-quinolyl)-N-(4-phenoxyphenyl)-1-piperazinecarboxamide]
177 to 178 °C | O=C(Nc1ccc(Oc2ccccc2)cc1)N1CCN(c2ncnc3cc(F)c(F)cc23)CC1 [Compound 329, 4-(6,7-Difluoro-4-quinazolinyl)-N-(4-phenoxyphenyl)-1-piperazinecarboxamide]
158 to 160 °C | COc1ccc2c(N3CCN(C(=S)NCc4ccccc4)CC3)ncnc2c1OC [Compound 384, N-Benzyl-4-(7,8-dimethoxy-4-quinazolinyl)-1-piperazinethiocarboxamide]
181 to 182 °C | CC(C)Oc1ccc2c(N3CCN(C(=O)Nc4ccc(Oc5ccccc5)cc4)CC3)ncnc2c1 [Compound 318, 4-(7-Isopropoxy-4-quinazolinyl)-N-(4-phenoxyphenyl)-1-piperazinecarboxamide]
205 to 206 °C | COc1cc2c(N3CCN(C(=S)NCc4cccnc4)CC3)ncnc2cc1OC(C)C [Compound 342, 4-(7-Isopropoxy-6-methoxy-4-quinazolinyl)-N-(3-picolyl)-1-piperazinethiocarboxamide]
207 to 208 °C | CCn1c(=O)n(C)c2cc3c(N4CCN(C(=S)NCc5ccccc5)CC4)ncnc3cc21 [Compound 388, N-Benzyl-4-(1,3-dihydro-3-ethyl-1-methyl-2-oxo-2H-imidazo[4,5-g]quinazolin-8-yl)-1-piperazinethiocarboxamide]
108 to 109 °C | COc1cccc2c(N3CCN(C(=O)Nc4ccc(Oc5ccccc5)cc4)CC3)ncnc12 [Compound 327, 4-(8-Methoxy-4-quinazolinyl)-N-(4-phenoxyphenyl)-1-piperazinecarboxamide]
93 to 96 °C | COc1cc2ncnc(N3CCCN(C(=O)Nc4ccc(Oc5ccccc5)cc4)CC3)c2cc1OC [Compound 435, 4-(6,7-Dimethoxy-4-quinazolinyl)-N-(4-phenoxyphenyl)-1-homopiperazinecarboxamide]
203 to 204 °C | O=C(Nc1ccc(Oc2ccccc2)cc1)N1CCN(c2cc(C(F)(F)F)nc3ccccc23)CC1 [Compound 397, N-(4-Phenoxyphenyl)-4-(2-trifluoromethyl-4-quinolyl)-1-piperazinecarboxamide]
